The subject of one data set is HCC4006 cells. In words: In vivo growth of CD26-positive lung cancer cell line HCC4006 in SCID mice (tumor weight). Conditions: YS110 10 mg/kg intraperitoneal, gefitinib 100 mg/kg oral, days 1 and 4; day 7.
Data set [1] has as its system H2452 cells. In words: MTT cell growth assay, H2452. Format: cell-based. The settings on record: day 2. As for the experimental part:
MESO1 or H2452 cells (2×10^3 cells/well) were inoculated to a 96-well plate. One hour later, cisplatin or pemetrexed was added thereto at 10^−9, 10^−8, 10^−7, 10^−6, 10^−5, or 10^−4 M (n=6). At day 2, MTT assay was conducted.
H2452 cells (2×10^3 cells/well) were inoculated to a 96-well plate. One hour later, the combination of 0.03, 0.3, or 1 μM cisplatin and 0.1, 3, or 10 μg/ml YS110, or the combination of 0.01, 0.1, or 0.3 μM pemetrexed and 0.1, 3, or 10 μg/ml YS110 was added thereto (n=6). At day 2, MTT assay was conducted. Significant difference was tested by two-tailed t-test (vs Cont).
MESO1 cells (2×10^3 cells/well) or H2452 cells (2×10^3 cells/well) were inoculated to a 96-well plate. One hour later, 0.3 μM cisplatin-0.1 μM pemetrexed combination, or YS110 (10 μg/ml) plus the 0.3 μM cisplatin-0.1 μM pemetrexed combination was added thereto (n=6). At day 2, MTT assay was conducted. Significant difference was tested by two-tailed t-test (vs Cont).
(§1) Gemcitabine was studied for its effect on the growth of a mesothelioma cell line. A mesothelioma cell line MESO1, JMN, H2452, or H226 (2×10^3 cells/well) was inoculated to a 96-well plate. One hour later, gemcitabine (10^−9, 10^−8, 10^−7, 10^−6, 10^−5, or 10^−4 M) was added thereto (N=6). 2 days later, MTT assay was conducted. Significant difference was tested by two-tailed t-test (vs Cont).
H2452 cells (2×10^3 cells/well) were inoculated to a 96-well plate. One hour later, gemcitabine (0, 10^−8, 3×10^−8, or 10^−7 M) and YS110 (0, 1, 3, or 10 μg/ml) were added thereto in combination. At day 2, MTT assay was conducted. Significant difference was tested by two-tailed t-test (vs Cont). Next, interaction in concomitant use of medications was studied (n=6). The interaction between YS110 and gemcitabine used concomitantly was analyzed by two-way ANOVA.
(§2) MESO1, JMN, H2452 or H226 cells (2×10^3 cells/well were inoculated to a 96-well plate. One hour later, 3×10^−8 M or 10^−7 M gemcitabine was added thereto by concomitant use with the combination of cisplatin (0, 0.1, 0.3, or 1 μM) and pemetrexed (0, 0.03, 0.1, or 0.3 μM) (n=6). At day 2, MTT assay was conducted.
(§3) The growth inhibitory effect of gemcitabine (10^−9 to 10^−4 M) was compared using MESO1, H2452, JMN, and H226 cell lines.
For orientation: Formazan colour is commonly taken as a measure of viable cells.

For data set [2] the following is noted: in vivo; cited from earlier work.
Data set [3] relates to H2452 cells. In words: Boyden chamber invasion assay, H2452. Format: cell-based. The settings on record: cisplatin 0, 3, or 10 μM and YS110 0, 10, or 20 μg/ml; 24 hours. As for the experimental part: (§4) MESO1 cells or H2452 cells (2.5×10^4 cells/well) were inoculated to a Boyden chamber. One hour later, cisplatin (5, 10, or 30 μM) or pemetrexed (1, 10, or 30 μM) was added thereto (n=5), followed by Boyden chamber invasion assay. 24 hours after the cell inoculation, invasive cells were stained with Diff-Quik-staining kit. Significant difference was tested by two-tailed t-test (vs Cont).
(§5) MESO1 cells or H2452 cells (2.5×10^4 cells/well) were inoculated to a Boyden chamber. One hour later, the combination of cisplatin (0, 3, or 10 μM) and pemetrexed (0, 10, or 30 μM) was added thereto (n=5), followed by Boyden chamber invasion assay. 24 hours after the cell inoculation, invasive cells were stained with Diff-Quik-staining kit. Significant difference was tested by two-tailed t-test (vs Cont).
H2452 cells (2.5×10^4 cells/well) were inoculated to a Boyden chamber. One hour later, the combination of cisplatin (0, 3, or 10 μM) and YS110 (0, 10, or 20 μg/ml) was added thereto (n=5), followed by Boyden chamber invasion assay. 24 hours after the cell inoculation, invasive cells were stained with Diff-Quik-staining kit. Significant difference was tested by two-tailed t-test (vs Cont). Next, the interaction of YS110 with cisplatin-pemetrexed concomitant use was studied. The interaction was analyzed by two-way ANOVA.

The subject of data set [4] is MESO1 cells. Description: Boyden chamber invasion assay, MESO1. Conditions: cisplatin 0, 3, or 10 μM and YS110 0, 10, or 20 μg/ml; 24 hours. Format: cell-based. The method, then: as §4, §5
MESO1 cells (2.5×10^4 cells/well) were inoculated to a Boyden chamber. One hour later, the combination of cisplatin (0, 3, or 10 μM) and YS110 (0, 10, or 20 μg/ml) was added thereto (n=5), followed by Boyden chamber invasion assay. 24 hours after the cell inoculation, invasive cells were stained with Diff-Quik-staining kit. Significant difference was tested by two-tailed t-test (vs Cont). Next, the interaction of YS110 with cisplatin-pemetrexed concomitant use was studied. The interaction was analyzed by two-way ANOVA.

The next data set relates to JMN cells. In words: MTT cell growth assay, JMN. Format: cell-based. Conditions: gemcitabine 3×10^−10, 10^−9, or 3×10^−8 M and YS110 1, 3, or 10 μg/ml; day 2. As for the experimental part:
as §1
JMN cells (2×10^3 cells/well) were inoculated to a 96-well plate. One hour later, gemcitabine (0, 3×10^−10, 10^−9, or 3×10^−8 M) and YS110 (0, 1, 3, or 10 μg/ml) were added thereto in combination. At day 2, MTT assay was conducted. Significant difference was tested by two-tailed t-test (vs Cont). Next, interaction in concomitant use of medications was studied (n=6). The interaction between YS110 and gemcitabine used concomitantly was analyzed by two-way ANOVA.
as §2
The growth inhibitory effects of cisplatin (10^−9 to 10^−4 M) and pemetrexed (10^−9 to 10^−4 M) were compared using the MESO1 and JMN cell lines.
as §3

Data set [5] has as its system MESO1 cells. In words: In vivo MESO1 cell growth in SCID mice (tumor weight). Conditions: YS110 10 mg/kg, cisplatin 0.5 mg/kg, pemetrexed 50 mg/kg, intraperitoneal, days 1 and 4; tumor weight day 7. As for the experimental part:
MESO1 cells (3×10^5 cells/animal) were subcutaneously transplanted to the backs of female SCID mice. The day of transplantation was defined as day 0. YS110 (10 mg/kg) alone, cisplatin (0.5 mg/kg)-pemetrexed (50 mg/kg) used concomitantly, or YS110 (10 mg/kg) concomitantly used with the cisplatin-pemetrexed concomitant use was intraperitoneally administered to the mice twice (days 1 and 4). At day 7, their tumors were excised, and the tumor weights were measured. Significant difference was tested by two-tailed t-test (vs Cont).

These results are taken from US11273217B2, “Cancer treatment composition combining anti-CD26 antibody and other anticancer agent” (Y's AC Co., Ltd., priority 2015, dated 2022).

On to “YS110: humanized anti-CD26 antibody designed based on anti-CD26 mouse antibody 14D10; SEQ ID NO: 17 and 18”, for which the “effect of YS110 on the effect of gefitinib (tumor weight)” value with HCC4006 cells was “potentiated”. Moreover, the “effect of YS110 on the cell growth inhibitory effect of pemetrexed” value in the data set on H2452 cells [1] (0.01, 0.1, or 0.3 μM pemetrexed and 0.1, 3, or 10 μg/ml YS110) was “potentiated”. For the same substance, in the data set on H2452 cells [1] (0.03, 0.3, or 1 μM cisplatin and 0.1, 3, or 10 μg/ml YS110), the “effect of YS110 on the cell growth inhibitory effect of cisplatin” value was “potentiated”. In addition, the “effect of YS110 on the cell growth inhibitory effect of cisplatin-pemetrexed” value with H2452 cells [1] (YS110 10 μg/ml plus 0.3 μM cisplatin-0.1 μM pemetrexed) was “potentiated”. The “effect of YS110 on the growth inhibitory effect of gemcitabine” value in the data set on H2452 cells [1] (gemcitabine 10^−8, 3×10^−8, or 10^−7 M and YS110 1, 3, or 10 μg/ml) is listed as “potentiated”; in the data set on JMN cells it was “potentiated”. Besides, in data set [2], the “safety in phase I clinical trial” value is recorded as “demonstrated its safety”. The “effect of YS110 on the cell invasion inhibitory action of cisplatin-pemetrexed” value in the data set with H2452 cells [3] was “synergistically potentiated”; in the data set with MESO1 cells [4], “potentiated”. Further, the “effect of YS110 on the in vivo tumor growth inhibitory effect of cisplatin-pemetrexed” value in the data set with MESO1 cells [5] is “potentiated”.
